“And” between values parts separate entries of the source, which are not always exact repeats. Equal entries are not always repeated.
Assays:
oral mucositis = assay: Acute radiation model of oral mucositis in hamsters; type: in vivo, Male Golden Syrian hamsters; conditions: day -1 to day 27; for weight change following irradiation: 40 Gy on day 0, DHEA-cyclodextrin complex; for daily mucositis scores vs saline control: score scale 0-5
From the text: The acute radiation model in hamsters (see, e.g., Sonis et al., 2000) has proven to be an accurate, efficient and cost-effective technique to provide a preliminary evaluation of anti-mucositis compounds. The course of mucositis in this model is well defined and results in peak ulceration scores approximately 14-16 days following radiation. The acute model has been used to study specific mechanistic elements in the pathogenesis of mucositis. Molecules that show efficacy in the acute radiation model may be further evaluated in the more complex models of fractionated radiation, chemotherapy, or concomitant therapy. In this example, an acute radiation dose of 40 Gy on day 0 was administered and clinically significant mucositis was observed around day 14.
Animals. Male Golden Syrian hamsters were randomly and prospectively divided into six (6) treatment groups prior to irradiation as follows:
Hamsters were given an acute radiation dose directed to their oral mucosa. Test materials were applied by injection (once per day) or by oral dosing (either once or twice per day. Oral administrations were done using feeding needles. Dosing began the day before radiation (day −1) and continued until day 27. The test material utilized was an Inflabloc® pharmaceutical preparation, which, for the present example, comprised a complex of DHEA and cyclodextrin.
Starting on Day 6 and continuing every second day thereafter (days 8, 10, 12, 14, 16, 18, 20, 22, 24, 26, & 28), each animal was evaluated for mucositis scoring.
Mucositis Scoring. Parameters measured were the mucositis score, weight change and survival. For the evaluation of mucositis, the animals were anesthetized with inhalation anesthetics, and the left pouch everted. Mucositis was scored visually by comparison to a validated photographic scale, ranging from 0 for normal, to 5 for severe ulceration (clinical scoring).
A score of 1-2 is considered to represent a mild stage of the disease, whereas a score of 3-5 is considered to indicate moderate to severe mucositis. Following visual scoring, a photograph was taken of each animal's mucosa using a standardized technique. At the conclusion of the experiment, all film was developed and the photographs randomly numbered. At least two independent trained observers graded the photographs in blinded fashion using the above-described scale (blinded scoring).
The effect on mucositis of each drug treatment compared to placebo was assessed according to these parameters: the difference in the number of days hamsters in each group have severe (score 3) mucositis and the rank sum differences in daily mucositis scores. On each evaluation day, the number of animals with a blinded mucositis score of 3 in each drug treatment group, was compared to the control group. Differences were analyzed on a cumulative basis. For each evaluation day the scores of the control group were compared to those of the placebo group and vehicle group.
Mucositis Induction. Mucositis was induced using a standardized acute radiation protocol using a single dose of radiation (40 Gy/dose) on Day 0.

[1] = test system: TNBS-induced colonic damage; type: in vivo, Male Wistar rats
Method: In this Example, the effects of DHEA were evaluated in the TNBS model (see, e.g., Boughton-Smith et al., 1988; Morris et al., 1989; Reuter et al., 1996) at a defined oral dose administered twice a day by gavage, using a low intracolonic concentration of TNBS (10 mg). This challenge dose of TNBS is known to generate reproducible yet not unduly severe mucosal injury in the colon, as determined 3 days after instillation. In this current investigation, colonic macroscopic injury has been assessed. In addition to DHEA, the effect of a single daily low oral dose of dexamethasone, which has a broad profile of anti-inflammatory actions, was also evaluated in this model.
Male Wistar rats (220-300 g) were randomised into groups before commencement of the study. On day 0, the rats were transiently anaesthetised with ether and TNBS (10 mg in 0.25 ml of 50% ethanol) was instilled into the colon using a soft plastic catheter inserted in the rat rectum. The rats were allowed to recover with free access to food and drinking water. At the end of the Experiment, 72 h after TNBS administration (i.e. on the morning of day 3), the distal colon was dissected, photographed and stored appropriately for subsequent analyses. Macroscopic scoring of distal 8 cm of colon was measured as the primary efficacy parameter. In addition, the weight of the colonic segment was assessed as an indirect and non-specific marker of oedema, and the body weight of the animals was determined each day of the study.
The groups (n=8-12) for study with TNBS challenge were: (a) saline control administered in 0.5 ml p.o. per rat, b.i.d; (b) DHEA (50 mg per rat, b.i.d); (c) dexamethasone (0.3 mg/kg, oral, once daily); (d) control non-challenged with TNBS and non-drug-treated (received only salineb.i.d.). The DHEA was administered orally, twice daily for 48 h before TNBS administration, on Day 0 with TNBS administration and on Day 1 and 2. The DHEA was administered as a solid bicarbonate composite providing high bioavailability. Tissues were removed 72 h after TNBS administration (Day 3). Saline treated animals on the final day were 95.6+/−1.7% of mean starting body weight. Similarly, DHEA-treated animals were 95.4+/−1.1% of their mean starting body weight. Weight loss in the Dexamethasone treatment group was significant at 84.5+/−1.3% of starting weight.

SMILES	weight change following irradiation (oral mucositis; 25 mg/kg/day ip)	daily mucositis scores vs saline control (oral mucositis; 50 mg/kg i.p.)	weight change following irradiation (oral mucositis; 50 mg/kg/day ip)	weight change following irradiation (oral mucositis; 250 mg/kg/day p.o.)	daily mucositis scores vs saline control (oral mucositis; 500 mg/kg/day oral)	weight change following irradiation (oral mucositis; 500 mg/kg/day p.o.)	body weight on the final day, % of mean starting body weight ([1]; DHEA 50 mg per rat b.i.d. oral, solid bicarbonate composite, TNBS 10 mg, day 3)	area of colonic injury, % of total colonic area of the segment ([1]; DHEA 50 mg per rat b.i.d. oral, 72 h after TNBS challenge, TNBS control 48±2%)	reduction in the area of colonic injury ([1]; DHEA 50 mg per rat b.i.d. oral, vs TNBS control, P<0.001)	colon weight of the standard segment (index of inflammatory oedema) ([1]; DHEA 50 mg per rat b.i.d. oral, vs saline + TNBS, end of study)	area of colonic injury, % of the mucosal area ([1]; dexamethasone 0.3 mg/kg once a day oral, 72 h after TNBS challenge, n=8, TNBS control 48±2%)
C[C@]12CC[C@H](O)CC1=CC[C@@H]1[C@@H]2CC[C@]2(C)C(=O)CC[C@@H]12 [DHEA, (3β)-3-hydroxyandrost-5-en-17-one]	weight gain patterns that closely corresponded to those observed in the control group	significantly lower than those in the saline control group	weight gain patterns that closely corresponded to those observed in the control group	no pattern of weight loss	significantly lower than those in the saline control group	no pattern of weight loss	95.4+/−1.1%	31+/−3%	40% and ~40%	significantly (P<0.001) reduced	
C[C@@H]1C[C@H]2[C@@H]3CCC4=CC(=O)C=C[C@]4(C)[C@@]3(F)[C@@H](O)C[C@]2(C)[C@@]1(O)C(=O)CO [dexamethasone]											41±5%

From patent US20040121991A1, “Dehydroepiandrosterone (DHEA) congeners for prevention and/or treatment of ulcers” (priority 2002, published 2004)
